Consider five compounds from ChEMBL document CHEMBL4342486, “An Alkyne-functionalized Arginine for Solid-Phase Synthesis Enabling "Bioorthogonal" Peptide Conjugation” (ACS Med Chem Lett, 2020).

The nature of data set [1]: Chemical stability of compound in PBS buffer at pH 7.4 at 100 uM incubated for 48 hrs by RP-HPLC analysis. It is filed as physicochemical. Particulars: pH 7.4, 48 h.
For data set [2], the target named is Neurotensin receptor type 1 (Homo sapiens, UniProt P30989). Nature of the data set: Displacement of [3H]UR-MK300 from human NTS1R expressed in human HT-29 cells incubated for 2 hrs by scintillation counting method. Format: cell-based. A general note: In a radioligand displacement assay an active substance lowers the binding of a labelled ligand.
Chain of Neurotensin receptor type 1 (P30989 whole entry): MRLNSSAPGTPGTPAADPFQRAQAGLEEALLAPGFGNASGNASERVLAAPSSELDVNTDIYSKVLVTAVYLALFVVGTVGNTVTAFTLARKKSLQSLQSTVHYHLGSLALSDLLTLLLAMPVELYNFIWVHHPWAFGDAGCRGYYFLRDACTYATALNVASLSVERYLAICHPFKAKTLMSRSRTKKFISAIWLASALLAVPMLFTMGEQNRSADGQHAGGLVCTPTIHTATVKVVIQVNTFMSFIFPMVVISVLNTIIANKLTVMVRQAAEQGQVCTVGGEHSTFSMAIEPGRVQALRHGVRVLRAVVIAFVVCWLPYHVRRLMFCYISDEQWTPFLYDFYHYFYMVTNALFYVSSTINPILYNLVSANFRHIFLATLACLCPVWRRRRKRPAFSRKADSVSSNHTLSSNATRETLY
Data set [3] has as its target Neuropeptide Y receptor type 4 (Homo sapiens, UniProt P50391). As to the kind of experiment: Displacement of [3H]UR-KK200 from human Y4R expressed in CHO cells incubated for 90 mins by microbeta scintillation counting method. It is filed as cell-based.

Chain of Neuropeptide Y receptor type 4 (P50391 whole entry): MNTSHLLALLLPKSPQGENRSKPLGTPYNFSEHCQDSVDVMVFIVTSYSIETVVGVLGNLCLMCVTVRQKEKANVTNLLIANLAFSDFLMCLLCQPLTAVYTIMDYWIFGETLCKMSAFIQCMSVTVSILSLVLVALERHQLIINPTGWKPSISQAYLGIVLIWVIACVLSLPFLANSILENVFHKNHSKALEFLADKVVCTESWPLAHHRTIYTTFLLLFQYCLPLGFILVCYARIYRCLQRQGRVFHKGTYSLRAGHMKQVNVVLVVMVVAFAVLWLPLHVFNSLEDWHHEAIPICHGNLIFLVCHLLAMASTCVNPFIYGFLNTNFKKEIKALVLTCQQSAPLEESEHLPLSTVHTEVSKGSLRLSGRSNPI

As for `CC(C)C[C@H](NC(=O)[C@@H](NC(=O)[C@H](Cc1ccc(O)cc1)NC(=O)[C@@H]1CCCN1C(=O)[C@H](CCCNC(=N)N)NC(=O)[C@@H](N)CCCNC(=N)NC(=O)NCCCCc1cn(CCCNC(=O)CCCCCN2/C(=C/C=C/C=C/C3=[N+](C)c4ccc5c(S(=O)(=O)[O-])cc(S(=O)(=O)O)cc5c4C3(C)C)C(C)(C)c3c2ccc2c(S(=O)(=O)O)cc(S(=O)(=O)O)cc32)nn1)C(C)(C)C)C(=O)O`, the Stability result in data set [1] was “Stable”. The Ki in data set [2] (read-out: Ki) worked out at 50 nM.
Consider `C#CCCCCNC(=O)NC(=N)NCCC[C@H](NC(=O)[C@H](CCCNC(=N)N)NC)C(=O)N1CCC[C@H]1C(=O)N[C@@H](Cc1ccc(O)cc1)C(=O)N[C@H](C(=O)N[C@@H](CC(C)C)C(=O)O)C(C)(C)C`, for which the Ki is 9.6 nM in data set [2] (read-out: Ki) and 9.33 nM in data set [2] (read-out: pKi (converted)).
As for `CC(=O)N[C@@H](CCCNC(=N)NC(=O)NCCCCc1cn(CCCNC(=O)CCCCCN2/C(=C/C=C/C=C/C3=[N+](C)c4ccc5c(S(=O)(=O)[O-])cc(S(=O)(=O)O)cc5c4C3(C)C)C(C)(C)c3c2ccc2c(S(=O)(=O)O)cc(S(=O)(=O)O)cc32)nn1)C(=O)N[C@@H](Cc1ccc(O)cc1)C(=O)N[C@@H](CCCNC(=N)N)C(=O)N[C@@H](CC(C)C)C(=O)N[C@@H](CCCNC(=N)N)C(=O)N[C@@H](Cc1ccc(O)cc1)C(N)=O`, the Stability entry in data set [1] is on record as “Stable”. Further, the Ki in data set [3] is 33 nM.
For the compound `C#CCCCCNC(=O)NC(=N)NCCC[C@H](NC(=O)[C@@H](N)CCCNC(=N)N)C(=O)N1CCC[C@H]1C(=O)N[C@@H](Cc1ccc(O)cc1)C(=O)N[C@H](C(=O)N[C@@H](CC(C)C)C(=O)O)C(C)(C)C`, the Ki in data set [2] (read-out: Ki) is 9.4 nM.
`C#CCCCCNC(=O)NC(=N)NCCC[C@H](N)C(=O)N[C@@H](CCCNC(=N)N)C(=O)N1CCC[C@H]1C(=O)N[C@@H](Cc1ccc(O)cc1)C(=O)N[C@H](C(=O)N[C@@H](CC(C)C)C(=O)O)C(C)(C)C`: the Ki in data set [2] (read-out: Ki) is 4.2 nM; in data set [2] (read-out: pKi (converted)), 4.07 nM.
